# Earlier results in patent US8412321B2, “Method of identifying strategies for treatment or prevention of ventricular fibrillation and ventricular tachycardia” (Cornell Research Foundation, Inc., priority 2004, dated 2013).
# Tested on: arterially perfused canine ventricle
structure (smiles),measurement,setting,value
COc1ccc(CCN(C)CCCC(C#N)(c2ccc(OC)c(OC)c2)C(C)C)cc1OC (stereo not drawn) [verapamil],slope of the APD restitution relation,"after exposure to verapamil, FIG. 14A",reduction in the slope of the APD restitution relation
same,magnitude of APD alternans (AM),"pacing at different basic cycle lengths, FIG. 14B",reduction in the magnitude of APD alternans
same,composite FFT of MAP recordings during VF,"verapamil added after 35 min of VF, FIG. 14C",converted the broad FFT spectra during VF to a single frequency
